{"source": "paper PMC8997437", "about": "“Apelin Resistance Contributes to Muscle Loss during Cancer Cachexia in Mice” (Cancers, 2022)", "key": {"MuRF1 promoter": {"tested_on": "MuRF1 promoter", "assay": "MuRF1 promoter-Firefly luciferase reporter assay in myoblasts", "type": "cell-based, mouse", "settings": "10 μM dexamethasone, 24 h, normalised to RLuc, n = 12", "description": "We used C2C12 myoblasts grown in a 24-well plate and transfected with pLKO or preproapelin-expressing plasmids with murine MuRF1 promoter-FLuc plasmid, and pRL-TK plasmid (Promega) using Lipofectamine 2000 (Life Technologies Europe BV, Carlsbad, CA, USA). The next day, they were treated with vehicle or 10 μM dexamethasone for 24 h. Luciferase activities were measured using the Dual-Luciferase Reporter Assay System (Promega) and a luminometer (Glomax 20/20 single tube luminometer, Promega).\nMyoblasts were transfected with a plasmid in which Firefly luciferase (FLuc) is under the control of a MuRF1 promoter, with another for Renilla luciferase (RLuc), under the control of thymidine kinase promoter to normalize the data (ratio 50:1) and with the empty vector pLKO, as control, or a preproapelin-expressing plasmid (Apln). After 24 h, myoblasts were treated with vehicle or with 10 μM Dexa for 24 h. […] Ordinary one-way ANOVA, ** p ≤ 0.01, **** p ≤ 0.0001, n = 12."}, "[1]": {"tested_on": "MuRF1, atrogin-1 and apelin mRNA in myotubes", "assay": "Q-PCR of atrophy-related genes in myotubes", "type": "cell-based, mouse", "settings": "10 μM Dexa, 24 h, TBP housekeeping, n = 6", "description": "Total RNA was isolated from cells or muscles with QIAzol Lysis Reagent (Qiagen, Hilden, Germany) and miRNeasy Kit (Qiagen), as in [31]. RNA concentration and purity were measured in a spectrophotometer (NanoDrop 1000, ThermoFisher Scientific, Waltham, MA, USA).\nmRNA/μg in muscle was analyzed using TaqMan reverse transcription reagents (Life Technologies) or SYBR Green (Qiagen). β-Glucuronidase (GUSB), or Tata binding protein (TBP), or Importin 8 (IPO8), or 18S ribosomal RNA (18S) were used as housekeeping genes (HK). To normalize for three HK, we used the ratio between the arithmetic average and the geometric average of the ng of cDNA of each gene, as described in [32].\nTBP was used as housekeeping gene."}, "C2C12 myotubes [2]": {"tested_on": "C2C12 myotubes", "assay": "Total protein content of myotubes", "type": "cell-based, mouse", "settings": "10 μM dexamethasone, n = 6", "description": "Total proteins were extracted from myotubes and muscles and quantitated as in [31]. Proteins were separated by electrophoresis on 4–20% sodium dodecyl sulfate-polyacrylamide gel electrophoresis (SDS-PAGE) (Bio-Rad, Hercules, CA, USA) and transferred to a polyvinylidene difluoride membrane (GE Healthcare, Chicago, IL, USA), which was then saturated for 2 h at RT with 5% bovine serum albumin (BSA) or milk in TBS-T buffer (20 mM Tris, 150 mM NaCl and 0.1% Tween-20) (Sigma). […] Band intensities were analyzed using ImageJ software."}, "[3]": {"tested_on": "cAMP-responsive elements (CRE)", "assay": "CRE-luciferase (cAMP) reporter assay in transfected myoblasts, forskolin induction", "type": "cell-based, mouse", "settings": "50 μM forskolin, 5 h", "source_text": "To test whether D-apelin still binds APJ, ultimately lowering cAMP levels, we transfected myoblasts with a reporter plasmid with the gene for FLuc under the control of cAMP-responsive elements (CRE). […] As expected, forskolin induced the CRE-related bioluminescent signal more than 20-fold (Figure 4C)."}, "APJ": {"tested_on": "APJ", "settings": "cited from earlier work"}, "C2C12 myotubes [4]": {"tested_on": "C2C12 myotubes", "assay": "Myotube diameter measurement (dexamethasone-induced atrophy)", "type": "cell-based, mouse", "settings": "four day-differentiated myotubes, 24 h; for protection of myotube diameter from dexamethasone-induced atrophy: 10 μM dexamethasone plus 10 nM peptide, n = 261–297", "description": "C2C12 (ATCC, Manassas, VA, USA), a myoblast cell line from the C3H mouse strain, was grown in DMEM (Dulbecco’s Modified Eagle’s Medium, Gibco, Waltham, MA, USA) with fetal bovine serum (FBS) (Euroclone, Pero, Italy) and 2 mM L-glutamine, (BioWest, Nuaillè, France) and maintained in culture at 37 °C with 5% CO2. Myoblasts differentiate into myotubes when they reached 80% confluence and were cultured for four days in DMEM, 2 mM L-glutamine, horse serum (HS) (Euroclone), at 37 °C and 8% CO2. The differentiation medium was changed every two days.\nPictures of myotubes were acquired with an Olympus Microscope IX71 (10× magnification, 10× ocular lens, Olympus, Shinjuku, Japan) with Cell F (2.6 Build1210, Olympus) imaging software for Life Science microscopy (Olympus Soft Imaging solution GmbH, Munster, Germany). Myotube diameters were measured in blind conditions using ImageJ software (National Institutes of Health, Bethesda, MA, USA). For each photo 10–11 myotubes were measured, calculating the mean of three diameters per myotube, for a total of at least 100 cells per condition.\nFour day-differentiated myotubes were exposed for 24 h to vehicle (Ctrl) or 10 μM dexamethasone (Dexa) and representative brightfield images are shown. […] We measured in blind the diameter of four day-differentiated myotubes exposed for 24 h to vehicle or 10 μM Dexamethasone (DEXA) in combination with vehicle or 10 nM apelin peptides of different lengths. […] Kruskal–Wallis test, **** p ≤ 0.0001, n = 261–297."}}, "note": "Entries after “also recorded” stand apart in the source; their conditions may differ.", "data": [{"molecule": "C[C@@H]1C[C@H]2[C@@H]3CCC4=CC(=O)C=C[C@]4(C)[C@@]3(F)[C@@H](O)C[C@]2(C)[C@@]1(O)C(=O)CO", "note": "[dexamethasone, Dexamethasone]", "values": [{"measurement": "increase of FLuc expression under MuRF1 promoter", "setting": "MuRF1 promoter", "value": "~15", "unit": "fold"}, {"measurement": "apelin expression (mRNA)", "setting": "[1]", "value": "halved"}, {"measurement": "increase of MuRF1 expression (mRNA)", "setting": "[1]", "value": "about 3 fold"}, {"measurement": "increase of atrogin-1 expression (mRNA)", "setting": "[1]", "value": 3, "unit": "fold"}, {"measurement": "reduction of total protein content", "setting": "C2C12 myotubes [2]", "value": "about 25%"}]}, {"molecule": "C=C[C@@]1(C)CC(=O)[C@]2(O)[C@@]3(C)[C@@H](O)CCC(C)(C)[C@@H]3[C@H](O)[C@H](OC(C)=O)[C@@]2(C)O1", "note": "[forskolin]", "values": [{"measurement": "induction of CRE-related bioluminescent signal", "setting": "[3]", "value": "more than 20 fold"}]}, {"molecule": "[Pyr1]-Apelin 13 [L-apelin 13]", "values": [{"measurement": "affinity for APJ", "setting": "APJ", "value": "nanomolar affinity"}, {"measurement": "protection of myotube diameter from dexamethasone-induced atrophy", "setting": "C2C12 myotubes [4]", "value": "fully protects myotubes from dexamethasone-induced atrophy; also recorded: fully preserved myotube diameter"}]}, {"molecule": "apelin 36: apelin isoform of 36 amino acids binding APJ (Tocris) (LVQPRGSRNGPGPWQGGRRKFRRQRPRLSHKGPMPF; Apelin-36; UniProt Q9ULZ1 42-77, looked up)", "values": [{"measurement": "effect of peptide alone on myotube diameter", "setting": "C2C12 myotubes [4]; 10 nM peptide with vehicle", "value": "reduced myotube diameters"}, {"measurement": "protection of myotube diameter from dexamethasone-induced atrophy", "setting": "C2C12 myotubes [4]", "value": "Unlike apelin 36, apelin 13 fully protects"}]}]}
